Common to all, as to type: in vivo
The nature of data set [1]: Acute toxicity for oral administration in mice. To be noted: mouse, in vivo, suspension in 10% gum arabic. The procedure: 1--ACUTE TOXICITY FOR ORAL ADMINISTRATION IN MICE
The compounds are administered orally in increasing doses in suspension in a 10% gum arabic solution to groups of 5 .female. mice of mean weight 25 g. The 50% lethal doses (LD 50) are calculated by the method of KARBER and BEHRENS (Arch. Exp. Path. Pharmakol. 1935, 177, 379-388).
The LD 50's found are summarised in Table IV below and indicate that the tested compounds have low toxicity.

In data set [2] the test system is spontaneous motor activity. The data set is described as follows: Action on spontaneous motor activity in the mouse (BOISSIER). The conditions noted are these: po, 0.5 h, 30 minutes after administration, vs control, read-out: Percentage variation in motor activity; for change in vivo at 500 mg/kg: 500 mg/kg p.o.; for change in vivo at 250 mg/kg: 250 mg/kg p.o. The procedure: 2.1--Action on spontaneous motor activity in the mouse
30 minutes after administration per os of the test compounds, the mice (groups of 12 animals) are installed in individual cages in a BOISSIER activity measuring cupboard and move about before two photoelectric cells placed according to the rectangular coordinates. Meters register the movement during 20 minutes.

Data set [3] has as its system pentobarbital hypnosis time. The data set is described as follows: Action on the pentobarbital hypnosis time in the mouse. To be noted: po, 0.5 h, 30 minutes before pentobarbital 50 mg/kg i.v., vs control, read-out: Percentage variation in pentobarbital hypnosis time; for change in vivo at 500 mg/kg: 500 mg/kg p.o.; for change in vivo at 250 mg/kg: 250 mg/kg p.o. An excerpt:
2.2--Action on the pentobarbital hypnosis time in the mouse
The hypnosis time of each mouse is counted in minutes from the moment when the animal may be placed without resistance on its back until that when it spontaneously gets back on its feet.

The subject of data set [4] is convulsant effects of electric shock. Kind of data set: Action against the convulsant effects of electric shock in the mouse. To be noted: po, 0.5 h, 30 minutes before shock, 13 to 16 mA for 0.1 sec, read-out: Percentage protection against the convulsant effects of the electric shock; for responders at 500 mg/kg: 500 mg/kg p.o. As to the method: 2.3--Test on the action against the convulsant effects of electric shock and of strychnine in the mouse
30 minutes after administration of the compounds to groups of 10 animals, there is investigated the protection induced against:
tonic crisis (extension of rear feet) provoked by supramaximal transcranial electric stimulation (13 to 16 mA for 0.1 sec).
The results are expressed as a percentage of protection based on a control group which have only received the administration vehicle for the compounds.

Each structure is given as a SMILES string. Bounds are passed on as bounds.

By LD50 is commonly meant the dose at which mortality reaches 50%. A low value points to a more toxic substance. As to `COc1cc(NCC(=O)N2CCN(C)CC2)cc(OC)c1OC` [compound 786], in data set [1] (po), the LD50 worked out at 1700 mg/kg. Moreover, the change in vivo at 170 mg/kg in data set [2] (170 mg/kg p.o.) is -20%; in data set [3] (170 mg/kg p.o.) it was 172%.

In data set [1] (po), `COc1cc(NCC(=O)N2CCOCC2)cc(OC)c1OC` [compound 793] yielded an LD50 of 1250 mg/kg.

For the compound `COc1cc(NC(=O)N(C)C2CCCCC2)cc(OC)c1OC` [compound 802], the LD50 in data set [1] (po) is over 5000 mg/kg.

The compound `COc1cc(NC(=O)OCCN2CCOCC2)cc(OC)c1OC` [compound 818] came in with an LD50 in data set [1] of 3500 mg/kg. Also, the change in vivo at 350 mg/kg in data set [2] (350 mg/kg p.o.) was -33%; in data set [3] (350 mg/kg p.o.), 180%.

In data set [1] (po), `COc1cc(NC(=O)N2CCSCC2)cc(OC)c1OC` [compound 804] came in with an LD50 of over 5000 mg/kg. The change in vivo at 500 mg/kg was -24% in data set [2] and 120% in data set [3].

`C=C(C)CNC(=O)Nc1cc(OC)c(OC)c(OC)c1` [compound 812]: the LD50 in data set [1] (po) amounted to 2000 mg/kg.

In data set [1] (po), `COc1cc(NC(=O)CN2CCN(CC(=O)Nc3cc(OC)c(OC)c(OC)c3)CC2)cc(OC)c1OC` [compound 848] showed an LD50 of over 5000 mg/kg.

Regarding `COc1cc(NC(=O)N2CCC(O)CC2)cc(OC)c1OC` [compound 814], the LD50 in data set [1] (po) turned out to be 5000 mg/kg.

Compound `COc1cc(NS(=O)(=O)N2CCOCC2)cc(OC)c1OC` [compound 791] displayed a 50% lethal dose (LD50) in data set [1] (po) of over 5000 mg/kg. The change in vivo at 500 mg/kg in data set [2] is -53%; in data set [3] it was 200%.

In the case of `COc1cc(NC(=O)N(C)CCCN(C)C)cc(OC)c1OC` [compound 805], the median lethal dose (LD50) in data set [1] (po) amounted to 2500 mg/kg.

In data set [1] (po), `COc1cc(NC(=O)NCC2CCCO2)cc(OC)c1OC` (stereo not shown) [compound 797] returned a median lethal dose (LD50) of 4400 mg/kg.

`COc1cc(NC(=O)CN2CCOc3ccccc32)cc(OC)c1OC` [compound 792] registered an LD50 in data set [1] (po) of over 5000 mg/kg.

Consider `COc1cc(NC(=O)NCCc2ccc(Cl)cc2)cc(OC)c1OC` [compound 796], for which the 50% lethal dose (LD50) in data set [1] (po) was over 5000 mg/kg.

`COc1cc(NC(=O)N2CCOc3ccc(Cl)cc32)cc(OC)c1OC` [compound 770]: the LD50 in data set [1] (po) was over 5000 mg/kg.

With `COc1cc(NC(=O)CN2CCN(c3cccc(C(F)(F)F)c3)CC2)cc(OC)c1OC` [compound 838], the LD50 in data set [1] (po) was over 5000 mg/kg.

In turn, `CCN(CC)C(=O)Nc1cc(OC)c(OC)c(OC)c1` [compound 809] showed an LD50 in data set [1] (po) of 3000 mg/kg. Further, the values for the change in vivo at 300 mg/kg in data set [2] (300 mg/kg p.o.) and in data set [3] (300 mg/kg p.o.) were -78% and 157%, respectively. Moreover, the responders at 300 mg/kg in data set [4] (300 mg/kg p.o.) stood at 80%.

For `COc1cc(OC(=O)N2CCOc3ccccc32)cc(OC)c1OC` [compound 773], the LD50 in data set [1] was over 5000 mg/kg.

For the compound `COc1cc(NC(=O)NCCc2ccccc2)cc(OC)c1OC` [compound 783], the LD50 in data set [1] (po) was over 5000 mg/kg.

With `COc1cc(NCC(=O)N2CCN(c3ccccc3)CC2)cc(OC)c1OC` [compound 837], in data set [1] (po), the LD50 is over 5000 mg/kg.

Turning to `COc1cc(NC(=O)CCN2CCC(O)(c3ccc(Cl)cc3)CC2)cc(OC)c1OC` [compound 829], the LD50 in data set [1] was over 5000 mg/kg.

`COc1cc(NC(=O)NC2CCCC2)cc(OC)c1OC` [compound 800]: the LD50 in data set [1] (po) was over 5000 mg/kg.

As to `COc1cc(NC(=O)N2CCCO2)cc(OC)c1OC` [compound 820], the LD50 in data set [1] (po) came to 1250 mg/kg.

In turn, `COc1cc(NC(=O)N2CCCCCC2)cc(OC)c1OC` [compound 813] registered a 50% lethal dose (LD50) in data set [1] (po) of 3000 mg/kg.

`COc1cc(NC(=O)CN2CCOCC2)cc(OC)c1OC` [compound 787]: the LD50 in data set [1] (po) was determined as 2500 mg/kg. Besides, the results for the change in vivo at 250 mg/kg in data set [2] and in data set [3] were -84% and 141%, respectively.

Consider `COc1cc(NC(=O)N2CCN(C(=O)Nc3cc(OC)c(OC)c(OC)c3)CC2)cc(OC)c1OC` [compound 840], for which the LD50 in data set [1] (po) was over 5000 mg/kg.

Consider `COc1cc(CNC(=O)Nc2cc(OC)c(OC)c(OC)c2)cc(OC)c1OC` [compound 798], for which the LD50 in data set [1] (po) is over 5000 mg/kg. Further, the change in vivo at 500 mg/kg in data set [2] is -20%; in data set [3], 145%. Also, in data set [4], the responders at 500 mg/kg was 40%.

As to `COc1cc(NC(=O)NCCCN(C)C)cc(OC)c1OC` [compound 785], the LD50 in data set [1] (po) turned out to be 2200 mg/kg.

With `COc1cc(NC(=O)Nc2ccnc3cc(Cl)ccc23)cc(OC)c1OC` [compound 777], in data set [1] (po), the LD50 was over 5000 mg/kg.

Turning to `COc1cc(NC(=O)N2CC(C)OC(C)C2)cc(OC)c1OC` (stereo not shown) [compound 788], in data set [1] (po), the LD50 was 1350 mg/kg. The change in vivo at 135 mg/kg in data set [2] (135 mg/kg p.o.) was -34%.

Compound `COc1cc(NC(=O)N2CCCC2)cc(OC)c1OC` [compound 810] displayed an LD50 in data set [1] (po) of 3750 mg/kg. Also, the change in vivo at 375 mg/kg is -38% in data set [2] (375 mg/kg p.o.) and 148% in data set [3] (375 mg/kg p.o.). The responders at 375 mg/kg in data set [4] (375 mg/kg p.o.) is 70%.

Consider `COc1cc(NC(=O)N2CCOC(C)C2)cc(OC)c1OC` (stereo not shown) [compound 816], for which the LD50 in data set [1] (po) stood at 2500 mg/kg.

In turn, `COc1cc(N(CCN2CCOCC2)C(=O)N2CCOCC2)cc(OC)c1OC` [compound 822] came in with an LD50 in data set [1] (po) of 5000 mg/kg.

In turn, `COc1cc(NC(=O)NCC2CCCCO2)cc(OC)c1OC` (stereo not shown) [compound 815] had an LD50 in data set [1] (po) of 5000 mg/kg.

`COc1cc(NC(=O)CCN2CCOCC2)cc(OC)c1OC` [compound 817] came in with an LD50 in data set [1] (po) of 5000 mg/kg. In addition, the change in vivo at 500 mg/kg in data set [2] is -17%; in data set [3], 300%. Also, in data set [4], the responders at 500 mg/kg turned out to be 40%.

`COc1cc(NC(=O)NC(=O)CN2CCOCC2)cc(OC)c1OC` [compound 834] gave an LD50 in data set [1] (po) of 3380 mg/kg.

`COc1cc(NC(=O)NC(C)CN(C)C)cc(OC)c1OC` (stereo not shown) [compound 784] returned an LD50 in data set [1] (po) of 3380 mg/kg.

Turning to `CCCCN(CCCC)C(=O)Nc1cc(OC)c(OC)c(OC)c1` [compound 780], the LD50 in data set [1] (po) was over 5000 mg/kg.

In turn, `COc1cc(NC(=O)ON2CCOCC2)cc(OC)c1OC` [compound 828] registered an LD50 in data set [1] of over 5000 mg/kg.

In the case of `COc1cc(N(Cc2ccccc2)C(=O)N2CCOCC2)cc(OC)c1OC` [compound 821], the LD50 in data set [1] (po) is 2500 mg/kg.

For the compound `COc1cc(NC(=O)NC2CCCCCCC2)cc(OC)c1OC` [compound 781], the LD50 in data set [1] (po) was over 5000 mg/kg.

In data set [1] (po), `COc1cc(NC(=O)N2CCOc3ccccc32)cc(OC)c1OC` [compound 774] yielded an LD50 of over 5000 mg/kg.

As for `COc1cc(NC(=O)NN2CCOCC2)cc(OC)c1OC` [compound 807], the LD50 in data set [1] (po) came to 2500 mg/kg. The change in vivo at 250 mg/kg was -33% in data set [2] and 98% in data set [3].

The compound `COc1cc(NC(=O)CCN2CCN(c3cccc(C(F)(F)F)c3)CC2)cc(OC)c1OC` [compound 841] yielded an LD50 in data set [1] (po) of over 5000 mg/kg.

For `COc1cc(OC(=O)N2CCN(C)CC2)cc(OC)c1OC` [compound 767], the median lethal dose (LD50) in data set [1] was found to be 1020 mg/kg.

In turn, `COc1cc(NC(=O)NC2CCCCCC2)cc(OC)c1OC` [compound 799] displayed an LD50 in data set [1] (po) of over 5000 mg/kg.

In the case of `COc1cc(NC(=O)NC2CCCCC2)cc(OC)c1OC` [compound 778], in data set [1] (po), the LD50 was over 5000 mg/kg.

As for `COc1cc(NCC(=O)N2CCOc3ccccc32)cc(OC)c1OC` [compound 782], in data set [1] (po), the LD50 is over 5000 mg/kg.

Take `C=CCN(C(=O)Nc1cc(OC)c(OC)c(OC)c1)C1CCCCC1` [compound 811]: the median lethal dose (LD50) in data set [1] (po) was determined as 5000 mg/kg.

`COc1cc(NC(=O)N2CCN(CC(=O)N3CCCCC3)CC2)cc(OC)c1OC` [compound 830] gave an LD50 in data set [1] (po) of 5000 mg/kg.

Take `COc1cc(NC(=O)N2CCN(C(c3ccccc3)c3ccc(Cl)cc3)CC2)cc(OC)c1OC` (stereo not shown) [compound 795]: in data set [1] (po), the median lethal dose (LD50) is over 5000 mg/kg.

Regarding `COc1cc(NCC(=O)N2CCOc3ccc(Cl)cc32)cc(OC)c1OC` [compound 762], the median lethal dose (LD50) in data set [1] (po) is over 5000 mg/kg.

The values are drawn from patent publication US4252804A, “Therapeutically useful 3,4,5-trimethoxybenzene derivatives” (Metabio-Joullie, priority 1977, dated 1981).
